Values after ≈ are worked out from the molar mass of the structure shown. Like-named read-outs stand apart in the source and are kept apart here.

The text below walks through data of patent US9120762B2, “Salts of bicyclo-substituted pyrazolon azo derivatives, preparation method and use thereof” (Jiangsu Hengrui Medicine Co., Ltd., priority 2009, dated 2015).

A short description of data set [1]: Pharmacokinetics assay in rats. It is filed as in vivo, SD rats. As to conditions: SD rats, intragastric, 50 mg/Kg (as free acid); for Vd/F / AUC / CL/F / half-life / MRT / Cmax / Tmax: both sexes, rat, po; for Vd/F: read-out: Apparent Distribution Volume Vz/F; for AUC: read-out: Area Under Curve AUC; for CL/F: read-out: Clearance CL/F (converted); for half-life: read-out: Half-Life t½ (converted); for MRT: read-out: Mean Residence Time MRT; for Cmax: read-out: Plasma Conc. Cmax; for Tmax: read-out: Time to peak Tmax. On the procedure: The compounds of the present disclosure were administrated intragastrically to rats to determine the drug concentration in plasma at different time points by HPLC-UV. The pharmacokinetic behavior of the compounds of the present disclosure was studied and evaluated in rats. […] Healthy adult SD rats, male and female in half, were purchased from SINO-BRITSH SIPPR/BK LAB.ANIMAL LTD., Colo., License number: SCXK (Shanghai) 2003-0002 The test compound was diluted with 1% sodium carboxymethyl cellulose to 5 mg/mL (calculated as the free acid form) of suspension before use. Healthy adult SD rats, male and female in half, were divided into 23 groups. […] The plasma samples were stored at −20° C. until analysis. The rats were fed 2 hours after administration. […] Then the mixture was mixed for 3 minute using a vortexer and centrifuged for 10 minutes at 13,500 rpm. 40 μL of the supernatant was analyzed by HPLC-UV. The compartmental model of pharmacokinetics was fitted for the test compounds and the major pharmacokinetic parameters were calculated in which Cmax and tmax were the actually measured values.

Data set [2] can be described thus: Solubility assay in water, 0.1% hydrochloric acid and methanol. It is filed as physicochemical. On the procedure: The solubility was characterized by:
The term “very soluble” refers to that 1 g (mL) of solute can be dissolved in less than 1 mL of solvent;
The term “freely soluble” refers to that 1 g (mL) of solute can be dissolved in from 1 mL to 10 mL, not including 10 mL of solvent;
The term “soluble” refers to that 1 g (mL) of solute can be dissolved in from 10 mL to 30 mL, not including 30 mL of solvent;
The term “sparingly soluble” refers to that 1g (mL) of solute can be dissolved in from 30 mL to 100 mL, not including 100 mL of solvent;
The term “slightly soluble” refers to that 1g (mL) of solute can be dissolved in from 100 mL to 1000 mL, not including 1000 mL of solvent;
The term “very slightly soluble” refers to that 1g (mL) of solute can be dissolved in from 1000 mL to 10000 mL, not including 10000 mL of solvent;
The term “practically insoluble or insoluble” refers to that 1g (mL) of solute cannot be dissolved completely in 10000 mL of solvent.

By AUC is commonly meant concentration integrated over time. What is called half-life is how long it takes for the measured level to halve. One may read the MRT as a mean duration of stay, worked out from the concentration-time curve. By Cmax is commonly meant the maximum level reached in the sampled fluid or tissue. As usually defined, the Tmax is the time at which the peak concentration occurs. On to `CC1=NN(c2ccc(C)c(C)c2)C(=O)/C1=N\Nc1cccc(-c2cccc(C(=O)O)c2)c1O` [Eltrombopag, eltrombopag, reference compound], for which, in data set [1] (SD, plasma, 50 mg/kg), the Vd/F was found to be 0.95 ± 0.42 L/kg, the AUC turned out to be 680 ± 255 µg·h/mL, the CL/F is 1.48 mL/min/kg and the half-life is 7.82 ± 1.34 h. Besides, in data set [1] (SD, plasma, 50 mg/kg), the MRT is 11.2 ± 2.6 h, the Cmax was determined as 61800 ± 18700 ng/mL and the Tmax was determined as 5.5 ± 1 h.

As to `CC1=NN(c2ccc3c(c2)CCCC3)C(=O)/C1=N\Nc1cccc(-c2ccc(C(=O)O)o2)c1O` [Example 11, (Z)-5-(2-hydroxy-3-{N′-[3-methyl-5-oxo-1-(5,6,7,8-tetrahydro-naphthalen-2-yl)-1,5-dihydro-pyrazol-4-ylidene]-hydrazino}-phenyl)-furan-2-carboxylic acid bis-(piperazine)], in data set [1] (50 mg/kg), the “Area Under Curve AUC” value stood at 270 ± 178 µg·h/mL, the “Clearance CL/F” value was found to be 14.6 ± 24.42 mL/min/kg, the “Half-Life t½” value turned out to be 12.1 ± 7.19 h and the “Plasma Conc. Cmax” value came out at 40200 ± 24300 ng/mL. In data set [1] (50 mg/kg), the “Time to peak Tmax” value is 1.5 ± 0.58 h.

In general, solubility refers to the dissolved amount per volume that the medium holds. As to `CC1=NN(c2ccc3c(c2)CCC3)C(=O)/C1=N\Nc1cccc(-c2cccc(C(=O)O)c2)c1O` [Example 3, (Z)-2′-hydroxy-3′-[N′-(1-indan-5-yl-3-methyl-5-oxo-1,5-dihydro-pyrazol-4-ylidene)-hydrazino]-biphenyl-3-carboxylic acid bis-(piperazine)], the solubility in data set [2] (0.1% hydrochloric acid) is less than 1 µg/mL. In addition, in data set [2] (methanol), the solubility came to 1534 µg/mL (≈ 3.38 mM). This molecule displayed a solubility in data set [2] (water) of 2290 µg/mL (≈ 5.04 mM). For the same molecule, in data set [1] (50 mg/kg), the “Area Under Curve AUC” value was 842 ± 185 µg·h/mL, the “Half-Life t½” value stood at 8.87 ± 0.78 h, the “Mean Residence Time MRT” value is on record as 13.0 ± 0.9 h and the “Plasma Conc. Cmax” value worked out at 79000 ± 9300 ng/mL. Besides, in data set [1] (SD, plasma, 50 mg/kg), the CL/F was 1.03 mL/min/kg and the Tmax was 5.5 ± 1 h.

With `CC1=NN(c2ccc3c(c2)CCC3)C(=O)/C1=N\Nc1cccc(-c2ccc(C(=O)O)o2)c1O` [Example 18, (Z)-5-{2-hydroxy-3-[N′-(1-indan-5-yl-3-methyl-5-oxo-1,5-dihydro-pyrazol-4-ylidene)-hydrazino]-phenyl}-furan-2-carboxylic acid bis-(piperazine)], in data set [2] (0.1% hydrochloric acid), the solubility is less than 1 µg/mL. Besides, the solubility in data set [2] (methanol) amounted to 6096 µg/mL (≈ 13.7 mM). Moreover, in data set [2] (water), the solubility was 2741 µg/mL (≈ 6.17 mM). Besides, in data set [1] (50 mg/kg), the “Area Under Curve AUC” value came out at 119 ± 102 µg·h/mL, the “Clearance CL/F” value was 10.5 ± 5.83 mL/min/kg, the “Half-Life t½” value was 3.99 ± 1.60 h and the “Mean Residence Time MRT” value turned out to be 5.31 ± 2.64 h. Besides, in data set [1] (50 mg/kg), the “Plasma Conc. Cmax” value was found to be 23300 ± 11600 ng/mL and the “Time to peak Tmax” value was determined as 1.63 ± 1.63 h.

With `CC1=NN(c2ccc3c(c2)CCC3)C(=O)/C1=N\Nc1cccc(-c2ccc(C(=O)O)o2)c1O.CCNCC.CCNCC` [Example 17, (Z)-5-{2-hydroxy-3-[N′-(1-indan-5-yl-3-methyl-5-oxo-1,5-dihydro-pyrazol-4-ylidene)-hydrazino]-phenyl}-furan-2-carboxylic acid bis-(diethylamine)], in data set [1] (in vivo), the Vd/F came out at 8.16 ± 11.1 L/kg, the AUC was found to be 138 ± 33 µg·h/mL, the CL/F is 6.33 mL/min/kg and the half-life was 12.7 ± 14.7 h. In data set [1] (in vivo), the MRT came to 14 ± 12 h, the Cmax worked out at 21500 ± 10500 ng/mL and the Tmax came to 3.38 ± 3.04 h.

`CC1=NN(c2ccc3c(c2)CCCC3)C(=O)/C1=N\Nc1cccc(-c2ccc(C(=O)O)o2)c1O` [Example 7d, (Z)-5-(2-hydroxy-3-{N′-[3-methyl-5-oxo-1-(5,6,7,8-tetrahydro-naphthalen-2-yl)-1,5-dihydro-pyrazol-4-ylidene]-hydrazino}-phenyl)-furan-2-carboxylic acid]: in data set [1] (50 mg/kg), the “Half-Life t½” value is 7.42 ± 7.19 h, the “Plasma Conc. Cmax” value came out at 16200 ± 3900 ng/mL and the “Time to peak Tmax” value is on record as 2.5 ± 1.0 h.

Turning to `CC1=NN(c2ccc3c(c2)CCC3)C(=O)/C1=N\Nc1cccc(-c2csc(C(=O)O)c2)c1O.NCCO.NCCO` [Example 19, (Z)-4-{2-hydroxy-3-[N′-(1-indan-5-yl-3-methyl-5-oxo-1,5-dihydro-pyrazol-4-ylidene)-hydrazino]-phenyl}-thiophene-2-carboxylic acid bis-(ethanolamine)], in data set [1] (SD, plasma, 50 mg/kg), the Vd/F worked out at 5.47 ± 2.72 L/kg, the area under the curve (AUC) was determined as 89.2 ± 7.2 µg·h/mL, the CL/F is 14.7 mL/min/kg and the half-life is 5.71 ± 3.68 h. For the same molecule, in data set [1] (SD, plasma, 50 mg/kg), the MRT worked out at 7.85 ± 2.92 h, the Cmax was 20800 ± 17300 ng/mL and the Tmax worked out at 1.81 ± 2.79 h.

`CC1=NN(c2ccc3c(c2)CCC3)C(=O)/C1=N\Nc1cccc(-c2cccc(C(=O)O)c2)c1O.CCNCC.CCNCC` [Example 2, (Z)-2′-hydroxy-3′-[N′-(1-indan-5-yl-3-methyl-5-oxo-1,5-dihydro-pyrazol-4-ylidene)-hydrazino]-biphenyl-3-carboxylic acid bis-(diethylamine)]: in data set [1] (in vivo), the Vd/F was 0.83 ± 0.16 L/kg, the AUC was found to be 833 ± 64 µg·h/mL, the CL/F is 1 mL/min/kg and the half-life was 9.55 ± 1.44 h. Moreover, in data set [1] (in vivo), the MRT came out at 11.1 ± 0.76 h, the maximum concentration (Cmax) was determined as 83900 ± 11200 ng/mL and the time to peak (Tmax) was found to be 5 ± 1.16 h.

`CC1=NN(c2ccc3c(c2)CCC3)C(=O)/C1=N\Nc1cccc(-c2csc(C(=O)O)c2)c1O.CCNCC.CCNCC` [Example 20, (Z)-4-{2-hydroxy-3-[N′-(1-indan-5-yl-3-methyl-5-oxo-1,5-dihydro-pyrazol-4-ylidene)-hydrazino]-phenyl}-thiophene-2-carboxylic acid bis-(diethylamine)]: in data set [1] (in vivo), the Vd/F amounted to 2.05 ± 0.68 L/kg, the AUC came out at 275 ± 116 µg·h/mL, the CL/F was 3.5 mL/min/kg and the half-life was 7.24 ± 2.45 h. Further, in data set [1] (in vivo), the MRT turned out to be 7.59 ± 1.33 h, the Cmax was determined as 46100 ± 15700 ng/mL and the Tmax amounted to 4.5 ± 1 h.

As to `CC1=NN(c2ccc3c(c2)CCC3)C(=O)/C1=N\Nc1cccc(-c2csc(C(=O)O)c2)c1O` [Example 21, (Z)-4-{2-hydroxy-3-[N′-(1-indan-5-yl-3-methyl-5-oxo-1,5-dihydro-pyrazol-4-ylidene)-hydrazino]-phenyl}-thiophene-2-carboxylic acid bis-(piperazine)], the solubility in data set [2] (0.1% hydrochloric acid) is less than 1 µg/mL. The molecule also had a solubility in data set [2] (methanol) of 2416 µg/mL (≈ 5.25 mM). Moreover, the solubility in data set [2] (water) is 814 µg/mL (≈ 1.77 mM). For the same molecule, in data set [1] (50 mg/kg), the “Area Under Curve AUC” value amounted to 380 ± 109 µg·h/mL, the “Clearance CL/F” value was determined as 2.33 ± 0.67 mL/min/kg, the “Half-Life t½” value is listed as 6.86 ± 0.48 h and the “Mean Residence Time MRT” value stood at 8.61 ± 0.31 h. In data set [1] (50 mg/kg), the “Plasma Conc. Cmax” value worked out at 61100 ± 1380 ng/mL and the “Time to peak Tmax” value came to 5.5 ± 1.0 h.

Take `CC1=NN(c2ccc3c(c2)CCC3)C(=O)/C1=N\Nc1cccc(-c2ccc(C(=O)O)o2)c1O.NCCO.NCCO` [Example 16, (Z)-5-{2-hydroxy-3-[N′-(1-indan-5-yl-3-methyl-5-oxo-1,5-dihydro-pyrazol-4-ylidene)-hydrazino]-phenyl}-furan-2-carboxylic acid bis-(ethanolamine)]: in data set [1] (SD, plasma, 50 mg/kg), the Vd/F was 6.33 ± 4.57 L/kg, the AUC was 52.4 ± 48 µg·h/mL, the CL/F was 32.3 mL/min/kg and the half-life is 2.08 ± 1.74 h. Further, in data set [1] (SD, plasma, 50 mg/kg), the MRT stood at 3.84 ± 1.03 h, the Cmax was found to be 19600 ± 16300 ng/mL and the Tmax came to 2 ± 0.82 h.
